Results: patent US20210259960A1, “FORMULATION CONTAINING EMRICASAN” (The Doshisha, priority 2018, published 2021)

Tests used:
[1] = Lyophilization test of emricasan ophthalmic solution, re-solubility by HPLC (Example 6); assay type: physicochemical; conditions: water added
Method: 7 mg of emricasan was accurately measured with an electronic balance (AUW220D, SHIMADZU) and transferred to a glass test tube. 140 μl of 99% ethanol was added thereto to dissolve emricasan. The solution thereof was sufficiently stirred with a vortex mixer in order to completely dissolve emricasan. The solution thereof was then added with polysorbate 80 (Tween 80, NIKKOL), which is a surfactant, so that the final concentration was 0.5%, followed by sufficient stirring. Ethanol was then distilled off by a nitrogen gas stream. D-mannitol (Wako Pure Chemical Industries, Ltd.) was dissolved into phosphate buffered saline (PBS) so that the final concentration was 4.5%, and the solution thereof was adjusted to pH 4.5 and added to the above solution so that the total amount was 7 ml. This solution was sufficiently stirred, and preserved in a −83° C. freezer for one day. After freezing, water was completely removed by a lyophilization machine (FDU-1200, TOKYO RIKAKIKAI CO, LTD) for 12 hours.
Water was then added to study the re-solubility. Further, after this sample was filtered with a 0.22 μmGV filter (Merck Millipore), the re-solubility of emricasan was measured by a high performance liquid chromatography (HPLC, Shimadzu Corporation). […]

[2] = Solubility of emricasan with 0.5% of various surfactants at low pH, visually observed (Example 2); assay type: physicochemical; conditions: target 10 mmol/L; surfactant 0.5% (HCO-100, HCO-60, HCO-40, HCO-20, CO-35, MYS-40, poloxamer 407)
Method: In this example, a target dissolution concentration of emricasan was set to be 10 mmol/L in the same manner as Example 1. 28 mg of emricasan was accurately measured with an electronic balance (AUW220D, SHIMADZU) and transferred to a glass test tube. 100 μl of 99% ethanol was added thereto to dissolve emricasan. The solution thereof was sufficiently stirred with a vortex mixer in order to completely dissolve emricasan. The solution thereof was then added with polyoxyethylene hydrogenated castor oil 100 (HCO-100, NIKKOL), polyoxyethylene hydrogenated castor oil (HCO-60, NIKKOL), polyoxyethylene hydrogenated castor oil 40 (HCO-40, NIKKOL), polyoxyethylene hydrogenated castor oil 20 (HCO-20, NIKKOL), polyoxyethylene castor oil (CO-35:, NIKKOL), polyethylene glycol monostearate 40 (MYS-40, NIKKOL), and polyoxyethylene polyoxypropylene glycol 407 (poloxamer 407, NIKKOL), which are nonionic surfactants comprising a polyoxyethylene group, so that the final concentration was 0.5%, followed by sufficient stirring. Phosphate buffered saline (PBS) was added to this solution so that the total amount was 5 ml, and the solution was sufficiently stirred and solubility was visually observed.

[3] = test system: immortalized cells in Fuchs' endothelial corneal dystrophy (iFECD); conditions: in vitro; cited from earlier work
[4] = Stability of emricasan in an acidic region using Tween 80, HPLC (Example 5); assay type: physicochemical
Method: Stability of when Tween 80 was used as a surfactant to dissolve emricasan to a final concentration of 0.1% was tested.
45 mg of emricasan was accurately measured with an electronic balance (AUW220D, SHIMADZU) and transferred to a glass test tube. 0.9 ml of 99% ethanol was added thereto to dissolve emricasan. The solution thereof was sufficiently stirred with a vortex mixer in order to completely dissolve emricasan. The solution thereof was then added with polysorbate 80 (Tween 80, NIKKOL), which is a surfactant, so that the final concentration was 0.5%, followed by sufficient stirring. Ethanol was then distilled off by a nitrogen gas stream. In order to adjust osmotic pressure, concentrated glycerin was added to this solution so that the final concentration was 1%. Phosphate buffered saline (PBS) was adjusted to pH 5.5, and added so that the total amount was 45 ml. After the solution was sufficiently stirred, 20 ml was collected and filtered with a 0.22 μmGV filter (Merck Millipore). 5 ml of the first filtrate was discarded, and 15 ml of the subsequent filtrate was collected. 5 ml of this filtrate was placed in each glass test tube for 4° C., 25° C., and 37° C., shaded by a parafilm and an aluminum foil, and preserved under each temperature condition. The stability of this sample was studied by a high performance liquid chromatography (HPLC, Shimadzu Corporation). HPLC conditions were as follows: acetonitrile containing 0.05% trifluoroacetic acid and water were used at the ratio of 60:40 as a mobile phase, the temperature of VR-ODS column (4.6×150 mm, Shimadzu Corporation) was set to be 40° C., the flow rate was set to be 1.0 ml/min, the detection wavelength was set to be 254 nm, the injection volume was set to be 10 μl, and the detection time was set to be 10 minutes. In this case, the stability was studied over time by assuming the results of HPLC measurement immediately after preparation to be 100% and comparing said results with the results after 2 weeks and 4 weeks. Further, the condition of pH 4.5 was prepared and studied in the same method as described above.

[5] = Solubility of emricasan with 2% surfactant at various pH, visually observed (Example 1); assay type: physicochemical
Method: 28 mg, which is the amount for the target concentration, of emricasan powder (Chemscene) was accurately measured with an electronic balance (AUW220D, SHIMADZU) and transferred to a glass test tube. 100 μl of 99% ethanol was added thereto to dissolve the emricasan powder. The solution thereof was sufficiently stirred with a vortex mixer in order to completely dissolve the emricasan powder. The solution thereof was then added with each of polysorbate 80 (Tween 80, NIKKOL), polyoxyethylene hydrogenated castor oil (HCO-60, NIKKOL), and polyethylene glycol monostearate (MYS-40, NIKKOL), which are nonionic surfactants comprising a polyoxyethylene group, so that the final concentration was 2%, followed by sufficient stirring. Phosphate buffered saline (PBS) was added to this solution so that the total amount was 5 ml, and the solution was sufficiently stirred and solubility was visually observed.

[6] = Stability of emricasan in solution using HCO-60, HPLC (Example 3); assay type: physicochemical; conditions: 0.5% emricasan, 0.5% HCO-60
Method: Stability of when HCO-60 was used as a surfactant to dissolve emricasan to a final concentration of 0.5% was tested. 500 mg of emricasan was accurately measured with an electronic balance (AUW220D, SHIMADZU) and transferred to a glass test tube. 2 ml of 99% ethanol was added thereto to dissolve emricasan. The solution thereof was sufficiently stirred with a vortex mixer in order to completely dissolve emricasan. The solution thereof was then added with polyoxyethylene hydrogenated castor oil 60 (HCO-60, NIKKOL), which is a surfactant, so that the final concentration was 0.5%, followed by sufficient stirring. Ethanol was then distilled off by a nitrogen gas stream. In order to adjust osmotic pressure, concentrated glycerin was added to this solution so that the final concentration was 1%. Phosphate buffered saline (PBS) was adjusted to pH 8, and added so that the total amount was 100 ml. After the solution was sufficiently stirred, 20 ml was collected and filtered with a 0.22 μmGV filter (Merck Millipore). 5 ml of the first filtrate was discarded, and 15 ml of the subsequent filtrate was collected. […] In this case, the stability was evaluated over time by assuming the results of HPLC measurement immediately after preparation to be 100% and comparing said results with the results after 2 weeks and 4 weeks. […]

[7] = Stability of emricasan in solution using Tween 80, HPLC (Example 4); assay type: physicochemical; conditions: 0.5% emricasan, 0.5% Tween 80
Method: Stability of when Tween 80 was used as a surfactant to dissolve emricasan to a final concentration of 0.5% was tested. 500 mg of emricasan was accurately measured with an electronic balance (AUW220D, SHIMADZU) and transferred to a glass test tube. 2 ml of 99% ethanol was added thereto to dissolve emricasan. The solution thereof was sufficiently stirred with a vortex mixer in order to completely dissolve emricasan. The solution thereof was then added with polysorbate 80 (Tween 80, NIKKOL), which is a surfactant, so that the final concentration was 0.5%, followed by sufficient stirring. Ethanol was then distilled off by a nitrogen gas stream. In order to adjust osmotic pressure, concentrated glycerin was added to this solution so that the final concentration was 1%. Phosphate buffered saline (PBS) was adjusted to pH 8, and added so that the total amount was 100 ml. After the solution was sufficiently stirred, 20 ml was collected and filtered with a 0.22 μmGV filter (Merck Millipore). 5 ml of the first filtrate was discarded, and 15 ml of the subsequent filtrate was collected. 5 ml of this filtrate was placed in each glass test tube for 4° C., 25° C., and 37° C., shaded by a parafilm and an aluminum foil, and preserved under each temperature condition. The stability of this sample was studied by a high performance liquid chromatography (HPLC, Shimadzu Corporation). […]

## C[C@H](NC(=O)C(=O)Nc1ccccc1C(C)(C)C)C(=O)N[C@@H](CC(=O)O)C(=O)COc1c(F)c(F)cc(F)c1F [emricasan]
[1]; lyophilized (0.5% Tween 80, 4.5% D-mannitol, pH 4.5), after 0.22 μm filtration
  amount of emricasan dissolved relative to before lyophilization: about 88%
[1]; lyophilized sample
  re-solubility after addition of water (appearance): immediately dissolved but was pale white
[2]
  final pH at which dissolution was observed: ≥ 6.5
[3]
  concentration that exhibited pharmacological activity: 10 μmol/L
[4]; 0.1% emricasan, 0.5% Tween 80, pH 4.5, 25° C., 2 weeks
  emricasan which was not degraded: no less than 90%
[4]; 0.1% emricasan, 0.5% Tween 80, pH 4.5 and 5.5, 4° C., 4 weeks
  emricasan which was not degraded: no less than 90%
[4]; 0.1% emricasan, 0.5% Tween 80, pH 4.5 and pH 5.5, 37° C.
  stability in solution: degradation of emricasan was observed
[4]; 0.1% emricasan, 0.5% Tween 80, pH 5.5, 25° C., 2 weeks
  emricasan which was not degraded: less than 90%
[4]; 0.1% emricasan, 0.5% Tween 80, pH 5.5, 25° C., 4 weeks
  emricasan which was not degraded: no less than 50%
[4]; 0.5% Tween 80, pH 4.5 and pH 5.5
  solubility at final concentration of 0.1%: dissolved
[4]; pH on the acidic side
  amount of emricasan that dissolves: at least 0.1 % by weight
[5]; HCO-60 2%, pH 5.0, target 10 mmol/L
  solubility (visually observed): a suspended state was maintained
[5]; Tween 80, HCO-60 or MYS-40 2%, pH 7, target 10 mmol/L
  solubility (visually observed): dissolution of all of the emricasan was observed
[5]; no surfactant, at a concentration for use in an eye drop
  solubility in saline, phosphate buffer, purified water: poorly soluble
[5]; no surfactant, pH 7.0 to 8.0, target 10 mmol/L
  solubility (visually observed): dissolution was not observed
[5]; target 10 mmol/L, nonionic polyoxyethylene surfactant 2%
  minimum pH value of a solvent in which dissolution was visually observed: 6.0
[5]; with surfactant 2%, pH 5.0, target 10 mmol/L
  solubility (visually observed): slightly dissolved
[6]; 25° C. and 37° C.
  stability in solution: degradation of emricasan was observed
[6]; pH 6 to 8, 4° C., 4 weeks
  emricasan which was not degraded (residual vs immediately after preparation): no less than 90%
[7]; 25° C. and 37° C.
  stability in solution: degradation of emricasan was observed
[7]; pH 6 to 8, 4° C., 4 weeks
  emricasan which was not degraded (residual vs immediately after preparation): no less than 90%
